Measurements reported in patent US12258328B2, “6-membered heteroaryl-containing aminopyridine compounds as EGFR inhibitors” (YUHAN CORPORATION, priority 2021, dated 2025).
Read-outs that look alike come from different tables or passages of the source.

Columns and labels:
EGFR wildtype = EGFR wildtype (Homo sapiens, UniProt P00533); assay: Biochemical EGFR kinase assay (Lance Ultra TR-FRET), wildtype
How it was run: (§1)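 In this biochemical assay, phosphorylation after a one-hour room-temperature reaction was detected with europium-labelled anti-phosphopeptide antibody at 2 nM final concentration.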

EGFR L858R/C797S = EGFR L858R/C797S (Homo sapiens, UniProt P00533, C797S/L858R); assay: Biochemical EGFR kinase assay (Lance Ultra TR-FRET), double mutant L858R/C797S
How it was run: as §1

EGFR del19/C797S = EGFR del19/C797S (Homo sapiens, UniProt P00533, C797S/DEL746-750); assay: Biochemical EGFR kinase assay (Lance Ultra TR-FRET), double mutant del19/C797S
How it was run: as §1

EGFR L858R/T790M/C797S = EGFR L858R/T790M/C797S (Homo sapiens, UniProt P00533, C797S/L858R/T790M); assay: Biochemical EGFR kinase assay (Lance Ultra TR-FRET), triple mutant L858R/T790M/C797S
How it was run: as §1

EGFR del19/T790M/C797S = EGFR del19/T790M/C797S (Homo sapiens, UniProt P00533, C797S/DEL746-750/T790M); assay: Biochemical EGFR kinase assay (Lance Ultra TR-FRET), triple mutant del19/T790M/C797S
How it was run: as §1

[1] = IC50 WT (nM) 100 μM ATP, 100 μM ATP
[2] = Km ATP, read-out: IC50 WT (nM) Km ATP
[3] = IC50 L858R/C797S (nM) 100 μM ATP, 100 μM ATP
[4] = Km ATP, read-out: IC50 L858R/C797S (nM) Km ATP
[5] = IC50 del19/C797S (nM) 100 μM ATP, 100 μM ATP
[6] = Km ATP, read-out: IC50 del19/C797S (nM) Km ATP
[7] = IC50 L858R/T790M/C797S (nM) 100 μM ATP, 100 μM ATP
[8] = Km ATP, read-out: IC50 L858R/T790M/C797S (nM) Km ATP
[9] = IC50 del19/T790M/C797S (nM) 100 μM ATP, 100 μM ATP
[10] = Km ATP, read-out: IC50 del19/T790M/C797S (nM) Km ATP

EGFR L858R/T790M/C797S, sequence (P00533 25-1210 T790M/C797S/L858R): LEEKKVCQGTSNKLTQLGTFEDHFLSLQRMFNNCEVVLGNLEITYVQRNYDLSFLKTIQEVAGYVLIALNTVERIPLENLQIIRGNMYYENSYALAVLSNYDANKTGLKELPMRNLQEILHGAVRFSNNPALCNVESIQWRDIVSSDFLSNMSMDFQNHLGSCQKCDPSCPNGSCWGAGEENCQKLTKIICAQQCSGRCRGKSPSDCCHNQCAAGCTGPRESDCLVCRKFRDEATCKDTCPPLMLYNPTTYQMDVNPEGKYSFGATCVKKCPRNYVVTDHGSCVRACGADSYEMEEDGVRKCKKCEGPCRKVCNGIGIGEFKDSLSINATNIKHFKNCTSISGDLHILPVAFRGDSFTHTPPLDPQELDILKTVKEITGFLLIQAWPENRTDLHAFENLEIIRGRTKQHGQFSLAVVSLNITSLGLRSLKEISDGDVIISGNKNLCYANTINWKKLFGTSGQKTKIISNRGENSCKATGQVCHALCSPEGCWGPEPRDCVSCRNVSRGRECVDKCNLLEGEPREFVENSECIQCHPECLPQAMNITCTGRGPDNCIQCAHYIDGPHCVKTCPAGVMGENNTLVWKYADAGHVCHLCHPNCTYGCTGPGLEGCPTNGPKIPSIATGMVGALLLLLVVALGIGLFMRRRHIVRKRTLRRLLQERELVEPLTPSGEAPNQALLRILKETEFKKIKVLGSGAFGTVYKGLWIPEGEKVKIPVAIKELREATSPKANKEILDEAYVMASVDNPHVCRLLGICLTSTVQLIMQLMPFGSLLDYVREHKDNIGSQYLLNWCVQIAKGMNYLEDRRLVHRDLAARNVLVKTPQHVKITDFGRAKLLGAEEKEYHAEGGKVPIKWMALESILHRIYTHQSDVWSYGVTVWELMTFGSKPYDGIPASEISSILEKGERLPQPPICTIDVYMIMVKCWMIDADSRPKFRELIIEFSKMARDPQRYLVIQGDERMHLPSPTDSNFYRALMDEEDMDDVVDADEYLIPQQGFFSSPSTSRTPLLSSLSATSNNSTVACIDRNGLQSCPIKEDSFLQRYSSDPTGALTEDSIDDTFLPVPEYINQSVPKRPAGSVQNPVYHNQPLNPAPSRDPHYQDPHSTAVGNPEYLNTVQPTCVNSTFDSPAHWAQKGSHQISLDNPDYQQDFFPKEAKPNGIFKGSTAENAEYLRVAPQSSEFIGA
EGFR L858R/C797S, sequence (P00533 25-1210 C797S/L858R): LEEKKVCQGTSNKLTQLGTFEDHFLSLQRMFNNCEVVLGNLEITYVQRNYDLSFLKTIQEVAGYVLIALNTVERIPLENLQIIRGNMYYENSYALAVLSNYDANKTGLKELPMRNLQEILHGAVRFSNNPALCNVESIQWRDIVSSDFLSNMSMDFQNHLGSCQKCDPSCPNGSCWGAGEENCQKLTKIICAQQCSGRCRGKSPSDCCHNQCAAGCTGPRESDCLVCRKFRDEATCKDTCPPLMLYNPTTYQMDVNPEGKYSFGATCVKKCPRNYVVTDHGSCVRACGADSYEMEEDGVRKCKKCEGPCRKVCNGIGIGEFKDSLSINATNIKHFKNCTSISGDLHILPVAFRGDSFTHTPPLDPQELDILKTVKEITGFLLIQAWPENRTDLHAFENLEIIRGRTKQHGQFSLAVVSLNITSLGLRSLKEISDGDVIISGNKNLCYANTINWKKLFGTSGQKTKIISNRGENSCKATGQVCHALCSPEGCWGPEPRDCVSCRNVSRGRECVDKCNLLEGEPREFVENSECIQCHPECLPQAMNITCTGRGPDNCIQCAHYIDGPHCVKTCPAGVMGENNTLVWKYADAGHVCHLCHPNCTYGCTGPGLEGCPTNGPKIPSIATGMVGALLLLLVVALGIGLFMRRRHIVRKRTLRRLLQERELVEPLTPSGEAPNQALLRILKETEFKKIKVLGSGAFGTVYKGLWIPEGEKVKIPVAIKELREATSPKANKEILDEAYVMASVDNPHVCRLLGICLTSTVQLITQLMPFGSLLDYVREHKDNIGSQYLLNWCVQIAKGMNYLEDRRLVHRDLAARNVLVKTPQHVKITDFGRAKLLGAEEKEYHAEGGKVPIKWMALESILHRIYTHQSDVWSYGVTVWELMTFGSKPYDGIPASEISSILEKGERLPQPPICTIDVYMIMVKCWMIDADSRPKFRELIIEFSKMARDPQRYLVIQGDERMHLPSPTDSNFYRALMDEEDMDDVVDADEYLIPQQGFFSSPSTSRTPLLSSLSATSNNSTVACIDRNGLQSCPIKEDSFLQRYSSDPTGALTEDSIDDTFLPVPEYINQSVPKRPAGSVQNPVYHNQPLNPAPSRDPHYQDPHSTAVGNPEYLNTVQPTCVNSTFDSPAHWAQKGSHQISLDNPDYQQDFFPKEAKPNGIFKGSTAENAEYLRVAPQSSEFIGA
EGFR del19/T790M/C797S, sequence (P00533 with tags, fused parts or gaps DEL746-750/T790M/C797S): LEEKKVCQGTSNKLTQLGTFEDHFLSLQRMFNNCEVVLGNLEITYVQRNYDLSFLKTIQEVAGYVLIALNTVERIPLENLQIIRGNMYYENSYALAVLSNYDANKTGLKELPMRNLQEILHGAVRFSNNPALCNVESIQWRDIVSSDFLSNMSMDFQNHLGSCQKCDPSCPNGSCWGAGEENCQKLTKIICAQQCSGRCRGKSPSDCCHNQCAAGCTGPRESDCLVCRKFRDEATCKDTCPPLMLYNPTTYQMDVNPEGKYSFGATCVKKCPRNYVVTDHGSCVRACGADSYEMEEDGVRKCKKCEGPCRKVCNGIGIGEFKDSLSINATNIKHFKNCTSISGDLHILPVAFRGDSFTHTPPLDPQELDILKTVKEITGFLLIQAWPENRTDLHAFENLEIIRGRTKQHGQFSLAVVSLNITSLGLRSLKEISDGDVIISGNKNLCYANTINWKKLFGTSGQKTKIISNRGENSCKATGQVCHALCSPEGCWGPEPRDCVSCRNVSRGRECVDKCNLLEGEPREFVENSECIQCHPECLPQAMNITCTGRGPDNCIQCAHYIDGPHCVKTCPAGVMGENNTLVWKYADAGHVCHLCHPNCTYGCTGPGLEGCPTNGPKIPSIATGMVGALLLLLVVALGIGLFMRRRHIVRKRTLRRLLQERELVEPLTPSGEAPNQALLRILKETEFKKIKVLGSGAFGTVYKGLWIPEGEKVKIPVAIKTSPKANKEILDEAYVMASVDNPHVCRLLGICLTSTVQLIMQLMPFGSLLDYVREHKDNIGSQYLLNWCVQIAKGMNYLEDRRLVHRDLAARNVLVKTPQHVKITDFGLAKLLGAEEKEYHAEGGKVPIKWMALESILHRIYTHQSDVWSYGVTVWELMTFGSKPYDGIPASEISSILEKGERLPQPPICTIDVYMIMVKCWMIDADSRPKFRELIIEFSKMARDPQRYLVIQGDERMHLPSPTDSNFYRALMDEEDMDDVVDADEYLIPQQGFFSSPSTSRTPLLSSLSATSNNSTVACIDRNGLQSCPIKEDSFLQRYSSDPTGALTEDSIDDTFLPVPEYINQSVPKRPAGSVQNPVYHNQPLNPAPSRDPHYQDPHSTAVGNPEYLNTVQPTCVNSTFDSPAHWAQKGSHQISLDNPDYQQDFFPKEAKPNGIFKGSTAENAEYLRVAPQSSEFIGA
EGFR wildtype, sequence (P00533 25-1210): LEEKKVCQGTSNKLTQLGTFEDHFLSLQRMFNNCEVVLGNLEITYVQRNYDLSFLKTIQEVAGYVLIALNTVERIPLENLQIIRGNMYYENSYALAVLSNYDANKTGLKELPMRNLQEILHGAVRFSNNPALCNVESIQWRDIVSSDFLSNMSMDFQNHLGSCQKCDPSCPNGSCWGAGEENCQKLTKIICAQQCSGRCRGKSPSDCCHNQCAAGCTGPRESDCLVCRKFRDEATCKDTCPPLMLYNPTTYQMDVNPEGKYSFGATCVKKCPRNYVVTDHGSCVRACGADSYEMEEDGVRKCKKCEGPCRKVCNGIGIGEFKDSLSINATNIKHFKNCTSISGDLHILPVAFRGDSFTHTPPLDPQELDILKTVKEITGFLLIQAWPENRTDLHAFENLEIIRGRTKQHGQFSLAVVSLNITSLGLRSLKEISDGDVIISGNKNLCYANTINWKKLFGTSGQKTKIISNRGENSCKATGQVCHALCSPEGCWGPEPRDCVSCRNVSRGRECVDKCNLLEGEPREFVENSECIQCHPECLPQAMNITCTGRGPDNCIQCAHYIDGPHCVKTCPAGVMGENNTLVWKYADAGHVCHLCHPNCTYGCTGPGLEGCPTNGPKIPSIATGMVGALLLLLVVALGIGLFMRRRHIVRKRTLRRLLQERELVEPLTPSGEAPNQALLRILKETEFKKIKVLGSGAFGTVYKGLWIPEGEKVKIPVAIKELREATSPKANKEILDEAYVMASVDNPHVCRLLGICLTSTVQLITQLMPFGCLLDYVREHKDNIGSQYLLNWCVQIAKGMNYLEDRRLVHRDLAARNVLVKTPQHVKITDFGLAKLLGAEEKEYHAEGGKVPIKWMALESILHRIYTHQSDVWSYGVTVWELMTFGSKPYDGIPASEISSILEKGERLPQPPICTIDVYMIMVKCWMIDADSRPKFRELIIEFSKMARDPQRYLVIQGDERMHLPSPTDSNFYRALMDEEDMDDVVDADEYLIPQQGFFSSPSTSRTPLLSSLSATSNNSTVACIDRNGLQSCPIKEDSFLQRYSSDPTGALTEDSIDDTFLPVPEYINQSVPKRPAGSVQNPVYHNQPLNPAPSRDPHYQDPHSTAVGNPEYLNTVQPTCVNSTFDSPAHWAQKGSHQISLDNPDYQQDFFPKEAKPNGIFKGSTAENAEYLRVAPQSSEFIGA

Row | Compound | IC50 (EGFR wildtype; [1]) | IC50 (EGFR wildtype; [2]) | IC50 (EGFR L858R/C797S; [3]) | IC50 (EGFR L858R/C797S; [4]) | IC50 (EGFR del19/C797S; [5]) | IC50 (EGFR del19/C797S; [6]) | IC50 (EGFR L858R/T790M/C797S; [7]) | IC50 (EGFR L858R/T790M/C797S; [8]) | IC50 (EGFR del19/T790M/C797S; [9]) | IC50 (EGFR del19/T790M/C797S; [10])
1 | O=S(=O)(C1CC1)n1cc(-c2nccc(Nc3cc(N[C@H]4CC[C@@H](CO)CC4)c(-c4cc(CN5CCC(F)(F)CC5)ccn4)cn3)n2)cn1 [Example 113, ((1s,4s)-4-((6′-((2-(1-(Cyclopropylsulfonyl)-1H-pyrazol-4-yl)pyrimidin-4-yl)amino)-4-((4,4-difluoropiperidin-1-yl)methyl)-[2,3′-bipyridin]-4′-yl)amino)cyclohexyl)methanol] | > 10000 nM | 15 nM | 20.8 nM | 8.8 nM | 19.9 nM | 11 nM | 3.2 nM | 2.3 nM | 5.3 nM | 7.5 nM
2 | CC(C)(O)[C@H]1CC[C@@H](Nc2cc(Nc3ccnc(-c4cnn(S(=O)(=O)C5CC5)c4)n3)ncc2-c2cc(CN3CCC(F)(F)CC3)ccn2)CC1 [Example 114, 2-((1s,4s)-4-((6′-((2-(1-(Cyclopropylsulfonyl)-1H-pyrazol-4-yl)pyrimidin-4-yl)amino)-4-((4,4-difluoropiperidin-1-yl)methyl)-[2,3′-bipyridin]-4′-yl)amino)cyclohexyl)propan-2-ol] | 653 nM | 46.8 nM | 33.7 nM | 15.7 nM | 29.9 nM | 27.1 nM | 4.5 nM | 2.8 nM | 11.2 nM | 8.5 nM
3 | CN(C)CCOc1cnc(-c2cnc(Nc3ccnc(-c4cnn(S(=O)(=O)C5CC5)c4)n3)cc2NC2CCC(C)(O)CC2)cn1 (centres unmarked) [Example 115, (1s,4s)-4-((2-((2-(1-(Cyclopropylsulfonyl)-1H-pyrazol-4-yl)pyrimidin-4-yl)amino)-5-(5-(2-(dimethylamino)ethoxy)pyrazin-2-yl)pyridin-4-yl)amino)-1-methylcyclohexan-1-ol] | > 10000 nM | 1.8 nM | 0.5 nM | 0.1 nM | 0.8 nM | 0.4 nM | 0.1 nM | 0.1 nM | 0.4 nM | 0.1 nM
4 | CN(C)CCOc1cnc(-c2cnc(Nc3ccnc(-c4cnn(S(=O)(=O)C5CC5)c4)n3)cc2N[C@H]2CC[C@@H](CO)CC2)cn1 [Example 116, ((1s,4s)-4-((2-((2-(1-(Cyclopropylsulfonyl)-1H-pyrazol-4-yl)pyrimidin-4-yl)amino)-5-(5-(2-(dimethylamino)ethoxy)pyrazin-2-yl)pyridin-4-yl)amino)cyclohexyl)methanol] | 384 nM | 0.4 nM | 0.3 nM | 0.1 nM | 0.1 nM | 0.1 nM | 0.04 nM | 0.04 nM | 0.1 nM | 0.1 nM
5 | CN(C)CCOc1cnc(-c2cnc(Nc3ccnc(-c4cnn(S(=O)(=O)C5CC5)c4)n3)cc2N[C@H]2CC[C@@H](C(C)(C)O)CC2)cn1 [Example 117, 2-((1s,4s)-4-((2-((2-(1-(Cyclopropylsulfonyl)-1H-pyrazol-4-yl)pyrimidin-4-yl)amino)-5-(5-(2-(dimethylamino)ethoxy)pyrazin-2-yl)pyridin-4-yl)amino)cyclohexyl)propan-2-ol] | 6500 nM | 1.9 nM | 0.5 nM | 0.2 nM | 0.5 nM | 0.3 nM | 0.1 nM | 0.1 nM | 0.4 nM | 0.2 nM

Results, then the compound that gave them:

Row | IC50 (EGFR wildtype; [1]) | IC50 (EGFR wildtype; [2]) | IC50 (EGFR L858R/C797S; [3]) | IC50 (EGFR L858R/C797S; [4]) | IC50 (EGFR del19/C797S; [5]) | IC50 (EGFR del19/C797S; [6]) | IC50 (EGFR L858R/T790M/C797S; [7]) | IC50 (EGFR L858R/T790M/C797S; [8]) | IC50 (EGFR del19/T790M/C797S; [9]) | IC50 (EGFR del19/T790M/C797S; [10]) | Compound
6 | 400 nM | – | 0.7 nM | 0.05 nM | 0.3 nM | 0.1 nM | 0.2 nM | 0.1 nM | 0.04 nM | 0.1 nM | CC(C)(O)c1cnc(-c2cnc(Nc3ccnc(-c4cnn(S(=O)(=O)C5CC5)c4)n3)cc2N[C@H]2CC[C@@](C)(O)CC2)cn1 [Example 118, (1s,4s)-4-((2-((2-(1-(Cyclopropylsulfonyl)-1H-pyrazol-4-yl)pyrimidin-4-yl)amino)-5-(5-(2-hydroxypropan-2-yl)pyrazin-2-yl)pyridin-4-yl)amino)-1-methylcyclohexan-1-ol]
7 | 108 nM | 1 nM | 0.3 nM | 0.03 nM | 0.2 nM | 0.1 nM | 0.2 nM | 0.1 nM | 0.1 nM | 0.1 nM | CC(C)(O)c1cnc(-c2cnc(Nc3ccnc(-c4cnn(S(=O)(=O)C5CC5)c4)n3)cc2N[C@H]2CC[C@@H](CO)CC2)cn1 [Example 119, 2-(5-(6-((2-(1-(Cyclopropylsulfonyl)-1H-pyrazol-4-yl)pyrimidin-4-yl)amino)-4-(((1s,4s)-4-(hydroxymethyl)cyclohexyl)amino)pyridin-3-yl)pyrazin-2-yl)propan-2-ol]
8 | 968 nM | 4.3 nM | – | 0.1 nM | 0.7 nM | 0.5 nM | 0.4 nM | 0.1 nM | 0.2 nM | 0.2 nM | CC(C)(O)c1cnc(-c2cnc(Nc3ccnc(-c4cnn(S(=O)(=O)C5CC5)c4)n3)cc2N[C@H]2CC[C@@H](C(C)(C)O)CC2)cn1 [Example 120, 2-(5-(6-((2-(1-(Cyclopropylsulfonyl)-1H-pyrazol-4-yl)pyrimidin-4-yl)amino)-4-(((1s,4s)-4-(2-hydroxypropan-2-yl)cyclohexyl)amino)pyridin-3-yl)pyrazin-2-yl)propan-2-ol]
9 | – | 22.6 nM | – | 2.9 nM | – | 4.6 nM | – | 0.2 nM | – | 0.5 nM | CC(C)Nc1cc(Nc2ccnc(-c3cnn(S(=O)(=O)C4CC4)c3)n2)ncc1-c1cnc(C(C)(C)O)cn1 [Example 121, 2-(5-(6-((2-(1-(Cyclopropylsulfonyl)-1H-pyrazol-4-yl)pyrimidin-4-yl)amino)-4-(isopropylamino)pyridin-3-yl)pyrazin-2-yl)propan-2-ol]
10 | – | 7.4 nM | – | 4.3 nM | – | 9.7 nM | – | 0.1 nM | – | 0.3 nM | CC(C)Nc1cc(Nc2ccnc(-c3cnn(S(=O)(=O)C4CC4)c3)n2)ncc1-c1cnc(OCCN(C)C)cn1 [Example 122, N^2-(2-(1-(Cyclopropylsulfonyl)-1H-pyrazol-4-yl)pyrimidin-4-yl)-5-(5-(2-(dimethylamino)ethoxy)pyrazin-2-yl)-N^4-isopropylpyridine-2,4-diamine]
11 | – | 22 nM | – | 2.3 nM | – | 28.6 nM | – | 0.7 nM | – | 2.6 nM | O=S(=O)(C1CC1)n1cc(-c2nccc(Nc3cc(N[C@H]4CC[C@@H](F)CC4)c(-c4ccc(N5CCOCC5)cn4)cn3)n2)cn1 [Example 123, N^6′-(2-(1-(Cyclopropylsulfonyl)-1H-pyrazol-4-yl)pyrimidin-4-yl)-N^4′-((1s,4s)-4-fluorocyclohexyl)-5-morpholino-[2,3′-bipyridine]-4′,6′-diamine]
12 | – | 12.7 nM | – | 0.4 nM | – | 3.3 nM | – | 0.4 nM | – | 0.3 nM | CC(C)Nc1cc(Nc2ccnc(-c3cnn(S(=O)(=O)C4CC4)c3)n2)ncc1-c1ccc(N2CCOCC2)cn1 [Example 124, N^6′-(2-(1-(Cyclopropylsulfonyl)-1H-pyrazol-4-yl)pyrimidin-4-yl)-N^4′-isopropyl-5-morpholino-[2,3′-bipyridine]-4′,6′-diamine]
